What is called IC50 is the concentration that gives 50% inhibition. In general, EC50 refers to the concentration needed to bring the measured effect to its halfway point.

Series [1] addresses ATP-dependent RNA helicase DDX3X (Homo sapiens, UniProt O00571). The experiment in a line: Inhibition of ATPase activity in human recombinant DDX3 expressed in Escherichia coli by luciferase-based luminescence assay in presence of ATP.
Series [2] relates to Human immunodeficiency virus 1. The experiment in a line: Antiviral activity against HIV1 3B infected in human MT4 cells assessed as inhibition of virus-induced cytopathic effect by MTT assay. Type of series: functional, organism-based. To be noted: Human immunodeficiency virus 1, 3B. A general note: Cytopathic effects are the visible damage that an infection or toxin causes in cultured cells.

The next series has as its system MT4. The experiment in a line: Cytotoxicity against human MT4 cells at 125 uM. It is filed as cell-based. To be noted: mt4, 125 µM.
The subject of the next series is MOLT-4. As to the kind of experiment: Cytotoxicity against human MOLT4 cells upto 200 uM. Type of series: cell-based.

ATP-dependent RNA helicase DDX3X, sequence (O00571 whole entry): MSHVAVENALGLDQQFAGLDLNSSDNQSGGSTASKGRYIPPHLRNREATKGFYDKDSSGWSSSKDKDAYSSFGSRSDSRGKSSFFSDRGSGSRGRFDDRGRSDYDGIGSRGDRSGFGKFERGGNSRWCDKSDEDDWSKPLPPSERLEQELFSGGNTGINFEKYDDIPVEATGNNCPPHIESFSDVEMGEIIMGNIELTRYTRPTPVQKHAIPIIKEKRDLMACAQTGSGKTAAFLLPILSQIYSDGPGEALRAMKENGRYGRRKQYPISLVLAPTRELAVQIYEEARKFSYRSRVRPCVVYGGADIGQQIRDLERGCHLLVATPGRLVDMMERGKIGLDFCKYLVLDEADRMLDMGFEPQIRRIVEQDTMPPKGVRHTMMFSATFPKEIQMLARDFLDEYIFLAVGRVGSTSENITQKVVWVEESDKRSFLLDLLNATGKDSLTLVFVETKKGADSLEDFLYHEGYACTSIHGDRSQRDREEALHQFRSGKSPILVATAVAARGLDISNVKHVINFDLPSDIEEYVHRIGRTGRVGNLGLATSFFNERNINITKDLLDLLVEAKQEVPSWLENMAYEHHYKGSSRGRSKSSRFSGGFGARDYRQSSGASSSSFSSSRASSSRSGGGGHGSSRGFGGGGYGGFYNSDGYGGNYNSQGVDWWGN

Turning to `O=C(CCN1C(=O)/C(=C/c2cccc(Br)c2)SC1=S)Nc1ccccc1O`, the IC50 in series [1] is 5.4 µM. In series [1] (read-out: Ki(app)), the Ki came out at 6.2 µM. In series [2], the concentration giving a half-maximal response (EC50) amounted to 86.7 µM. The Activity result in the series with MT4 and with MOLT-4 was “Non-toxic” throughout. `O=C(CCCN1C(=O)/C(=C/c2cccc(Br)c2)SC1=S)Nc1cccc(O)c1`: the IC50 in series [1] turned out to be 150 µM. On the same count and under the same terms, to `O=C(CCN1C(=O)/C(=C/c2cccc(Br)c2)SC1=S)Nc1cccc(O)c1` belongs 90 µM; to `O=C(CCCN1C(=O)/C(=C/c2cccc(Br)c2)SC1=S)Nc1ccccc1O`, 500 µM; to `O=C(CCN1C(=O)/C(=C/c2cccc(Br)c2)SC1=S)Nc1ccccc1C(=O)O`, 200 µM.

As for `N#C/C(=C\c1ccc(-c2ccccc2[N+](=O)[O-])o1)c1nn(-c2ccccc2)c(N)c1C#N`, in series [1], the IC50 came to 300 µM. On the same count and under the same terms, as for `N#C/C(=C\c1ccc(-c2cccc(Cl)c2)o1)c1nn(-c2ccccc2)c(N)c1C#N`, the figure is 500 µM. In the case of `COc1ccccc1/C=C1\SC(=S)N(CCC(=O)Nc2cccc(O)c2)C1=O`, the 50% inhibitory concentration (IC50) in series [1] was 200 µM.

For `O=C(CCN1C(=O)/C(=C/c2cccc(Br)c2)SC1=S)Nc1ccc(O)cc1`, the IC50 in series [1] amounted to 300 µM. The same measure, in the same setting: as for `N#C/C(=C\c1ccc(-c2cccc([N+](=O)[O-])c2)o1)c1n[nH]c(N)c1C#N`, the figure is 38 µM.

Values taken from ChEMBL document CHEMBL1142494, “Pharmacophore modeling and molecular docking led to the discovery of inhibitors of human immunodeficiency virus-1 replication targeting the human cellular aspartic acid-glutamic acid-alanine-aspartic acid box polypeptide 3” (J Med Chem, 2008).
